Measurements from patent US20050282745A1, “Non-mammalian GnRH analogs and uses thereof in regulation of fertility and pregnancy” (priority 2001, published 2005).
Non-standard residues stand in square brackets, D forms with d. Residues, ends and D or L forms follow the SMILES beside them. *: point of attachment. dPhe(4-Cl) = N[C@H](Cc1ccc(Cl)cc1)C(=O)O; d2Nal = N[C@H](Cc1ccc2ccccc2c1)C(=O)O; Lys(iPr) = CC(C)NCCCC[C@H](N)C(=O)O; d3Pal = N[C@H](Cc1cccnc1)C(=O)O; pGlu = O=C1CC[C@@H](C(=O)O)N1; Nicotinoyl = O=C(c1cccnc1)*

Tests used:
[1] = test system: chorionic peptidase-1 (C-ase-1); assay: C-ase-1 enzyme activity assay, competition for degradation of GnRH; details: for relative potency of inhibition of C-ase-1 degradation of GnRH, compared to GnRH: Example V; for Ki: competition for degradation of mammalian GnRH
Method: (§1) Using the incubation system developed for the C-ase-1 activity, the degradation of each analog was tested. […] These studies were done using the C-ase-1 enzyme activity assay as described previously. […] The product formed was calculated by subtraction, and its inverse plotted against the inverse of the original substrate concentrations to determine the nature of the competition. The Ki was to be determined by plotting the inverse of the product that formed verses the inhibitor used.
(§2) The concentration of the product of the degraded GnRH was quantified by subtracting the remaining mammalian GnRH from the starting concentrations of mammalian GnRH. […] The Ks for the degradation of mammalian GnRH was calculated from the x axis intercept using Lineweaver-Burke double reciprocal plot of the concentration of the product formed versus the concentration of the substrate used.
(§3) The reaction was stopped by heating at 85° C. for 10 minutes. The remaining GnRH was determined using a specific radioimmunoassay. The formation of product, i.e., the N-terminal nonapeptide of GnRH, was calculated by subtraction and its inverse was plotted versus the inverse of the initial substrate to determine the Ks of the reaction. […] The relative potency of each analog was compared.
(§4) Using the incubation system developed for the C-ase-1 activity, the degradation of each analog was studied. […] The inverse of the product was plotted against the inverse of the original substrate concentrations to determine Ks of the competition. The Ki was determined by plotting the inverse of the product formed verses the inhibitor used.

[2] = test system: chorionic peptidase-1 (C-ase-1)
Method: as §1, §2, §3, §4

pregnant baboons = assay: Pregnant baboons, mini-pump days 14-21 post ovulation; format: in vivo, baboon
Method: Mammalian GnRH analogs, ZOLADEX™ (Goserelin acetate) and Organon 30276, were administered to pregnant baboons via mini-pump on days 14 through 21 post ovulation. The hormonal release and pregnancy outcome was compared to saline treated controls. […] In a dose-response saline-controlled study using very high doses of mammalian GnRH analog, a small stimulation of hCG in very early pregnancy was observed by the present inventor.

[3] = test system: human placental GnRH receptor; assay: Placental GnRH receptor binding, 125I-Buserelin label; details: for receptor activity/potency compared with GnRH: 125I-Buserelin, Example VI
Method: The newly synthesized non-mammalian GnRH analogs and other commercially available mammalian GnRH analogs were used in placental receptors binding and enzyme stability study described here. […] GnRH receptors were purified from the membrane fractions from placentas. The purification procedure for the placental GnRH receptor was performed using a modification of the method described by Bramley et al., which reference is specifically incorporated herein by reference for the purpose. Addition of enzyme inhibitors for the endogenous C-ase-1 were used as well as agents for receptor stabilization. Initially, receptor-binding assays using ^125I-Buserelin as label were performed. The competitive binding of each of the analogs was studied over a dose range of 10^−11 to 10^−6 M. Incubation was at room temperature and receptor bound label was precipitated with polyethylene glycol. Specific and non-specific binding was determined. The data was subjected to Scatchard analysis. The non-mammalian GnRH analogs' ability to bind to the placental GnRH receptor was compared to that for synthetic mammalian GnRH (SEQ ID NO: 5), Buserelin (SEQ ID NO: 10) and other mammalian analogs. […] This way, the receptor affinity for that analog could be precisely determined. Receptors from three different term placentas were used to study each of these analogs. […] Bramley T A, McPhie C A, Menzies G S 1994 Human placental gonadotropin-releasing hormone (GnRH) binding sites: 111. […] Placenta 15:733-745.
In these and additional studies, placental GnRH receptors were purified from human term placentas after homogenization in 40 mM Tris (pH 7.4) and filtered through cheesecloth, followed by an initial centrifugation at 1,000×g for 10 minutes. The resulting supernatant was, again, centrifuged at 35,000×g for 30 minutes and the membrane pellet was collected and resuspended in Tris buffer with 0.3 M sucrose. The protein concentration was determined. Membranes were stored frozen at −20 C until use. Before use, placental membranes were diluted to 5,000 μg/mL with Tris buffer containing 0.5% BSA and 50 U/mL bacitracin. […] Following incubation at room temperature for 4 hours, the bound and free hormones were separated using polyethylene glycol precipitation, followed by centrifugation. The binding affinity for each GnRH isoform or analog was calculated using the double reciprocal plot of bound versus free ligand. Each study was done using three different human term placental tissues.
Receptor assays were performed by incubating human term placental GnRH receptors with varying concentrations of GnRH or its analogs in the presence of ^125I-Buserelin. The reaction was stopped and the bound hormone precipitated with polyethylene glycol.

placental homogenate = assay: Degradation in whole placental homogenate; format: in vitro ADME, human
Method: Studies using whole placental homogenate were also performed. […] The competition by the newly synthesized non-mammalian GnRH analogs as compared to mammalian GnRH (SEQ ID NO: 5) was then studied to confirm the C-ase-1 studies above. […] (FIG. 3)
The stability of these analogs in the present of whole placental homogenates was examined. The ethylamide derivative has a slowed degradation rate as compared to GnRH, but can be degraded.

CC(=O)N[C@H](Cc1ccc2ccccc2c1)C(=O)N[C@H](Cc1ccc(Cl)cc1)C(=O)N[C@H](Cc1cccnc1)C(=O)N[C@@H](CO)C(=O)N[C@@H](CCCCNC(=O)c1cccnc1)C(=O)N[C@H](CCCCNC(=O)c1cccnc1)C(=O)N[C@@H](CC(C)C)C(=O)N[C@@H](CCCCNC(C)C)C(=O)N1CCC[C@H]1C(=O)N[C@H](C)C(N)=O [Antide] (Ac-[d2Nal][dPhe(4-Cl)][d3Pal]SK(Nicotinoyl)[dK](Nicotinoyl)L[Lys(iPr)]P[dA]-NH2; N-terminus and C-terminus assumed)
relative potency of inhibition of C-ase-1 degradation of GnRH, compared to GnRH [1]: 0.6
potency as competitor compared with salmon or chicken II GnRHs ([1]; Example VII): two-fold more potent
potency as competitor for GnRH degradation by C-ase-1 compared with GnRH ([1]; Example VII): three-fold less potent
degradation by / competition for C-ase-1, in words [2]: degraded with reduced activity

CCNC(=O)[C@@H]1CCCN1C(=O)[C@H](Cc1ccc(O)cc1)NC(=O)[C@H](Cc1c[nH]c2ccccc12)NC(=O)[C@@H](CCCNC(=N)N)NC(=O)[C@H](Cc1c[nH]cn1)NC(=O)[C@H](CO)NC(=O)[C@H](Cc1c[nH]c2ccccc12)NC(=O)[C@H](Cc1c[nH]cn1)NC(=O)[C@@H]1CCC(=O)N1 [D-Arg-chicken II GnRH-ethylamide, D-Arg (6)-chicken II GnRH-des-Gly (10)-ethylamide] ([pGlu]HWSH[dR]WYP-NHEt)
Ki ([1]; Example III): > 200 nM

CCNC(=O)[C@@H]1CCCN1C(=O)[C@H](CCCNC(=N)N)NC(=O)[C@H](CC(C)C)NC(=O)[C@@H](CC(C)C)NC(=O)[C@H](Cc1ccc(O)cc1)NC(=O)[C@H](CO)NC(=O)[C@H](Cc1c[nH]c2ccccc12)NC(=O)[C@H](Cc1c[nH]cn1)NC(=O)[C@@H]1CCC(=O)N1 [MAMMALIAN D-LEU (6), EA (10), des-Gly^10, D-Leu^6-GnRH-ethylamide]
degradation by / competition for C-ase-1, in words [2]: potent competitive inhibitors

CC(C)C[C@H](NC(=O)[C@@H](COC(C)(C)C)NC(=O)[C@H](Cc1ccc(O)cc1)NC(=O)[C@H](CO)NC(=O)[C@H](Cc1c[nH]c2ccccc12)NC(=O)[C@H](Cc1cnc[nH]1)NC(=O)[C@@H]1CCC(=O)N1)C(=O)N[C@@H](CCCNC(=N)N)C(=O)N1CCC[C@H]1C(=O)NNC(N)=O [ZOLADEX, Goserelin acetate]
abortions (pregnant baboons; in vivo): not consistently effected
pregnancy outcome (pregnant baboons; in vivo): in most animals pregnancy outcomes were jeopardized
CG and progesterone (pregnant baboons; vs saline controls): decreased

CCNC(=O)[C@@H]1CCCN1C(=O)[C@H](CCCNC(=N)N)NC(=O)[C@H](CC(C)C)NC(=O)[C@@H](Cc1c[nH]c2ccccc12)NC(=O)[C@H](Cc1ccc(O)cc1)NC(=O)[C@H](CO)NC(=O)[C@H](Cc1c[nH]c2ccccc12)NC(=O)[C@H](Cc1c[nH]cn1)NC(=O)[C@@H]1CCC(=O)N1 [^6D-Trp-GnRH-^10 ethylamide]
receptor activity/potency compared with GnRH [3]: twice as active

CCNC(=O)[C@@H]1CCCN1C(=O)[C@H](CCCNC(=N)N)NC(=O)[C@H](CC(C)C)NC(=O)[C@@H](Cc1cn(Cc2ccccc2)cn1)NC(=O)[C@H](Cc1ccc(O)cc1)NC(=O)[C@H](CO)NC(=O)[C@H](Cc1c[nH]c2ccccc12)NC(=O)[C@H](Cc1cnc[nH]1)NC(=O)[C@@H]1CCC(=O)N1 [^6Im-btl-D-His-GnRH^10 ethylamide, des-Gly^10-Im-Btl-D-His^6-GnRH-ethylamide]
degradation by / competition for C-ase-1, in words [2]: resistant to degradation
receptor activity/potency compared with GnRH [3]: half the potency
receptor activity/potency compared with GnRH ([3]; listed as 6Im-btl-D-His-GnRH-^10 ethylamide): half the potency
receptor activity/potency compared with GnRH ([3]; listed as Im-Btl-His(6) analog): reduced receptor potency

CCNC(=O)[C@@H]1CCCN1C(=O)[C@H](Cc1ccc(O)cc1)NC(=O)[C@H](Cc1c[nH]c2ccccc12)NC(=O)CNC(=O)[C@H](Cc1c[nH]cn1)NC(=O)[C@H](CO)NC(=O)[C@H](Cc1c[nH]c2ccccc12)NC(=O)[C@H](Cc1c[nH]cn1)NC(=O)[C@@H]1CCC(=O)N1 [chicken II GnRH ethylamide, chicken II GnRH-^10 ethylamide] ([pGlu]HWSHGWYP-NHEt)
stability in whole placental homogenates (placental homogenate): more stable than the mammalian GnRH analogs
receptor activity/potency compared with GnRH [3]: 33 fold

NC(=O)CNC(=O)[C@@H]1CCCN1C(=O)[C@H](Cc1ccc(O)cc1)NC(=O)[C@H](Cc1c[nH]c2ccccc12)NC(=O)CNC(=O)[C@H](Cc1c[nH]cn1)NC(=O)[C@H](CO)NC(=O)[C@H](Cc1c[nH]c2ccccc12)NC(=O)[C@H](Cc1c[nH]cn1)NC(=O)[C@@H]1CCC(=O)N1 [chicken II GnRH] ([pGlu]HWSHGWYPG-NH2; C-terminus assumed)
degradation/competition relative to mammalian GnRH ([1]; Example III): one-sixth
relative potency of inhibition of C-ase-1 degradation of GnRH, compared to GnRH [1]: 0.2
Ki ([1]; Example III): 200 nM
stability in whole placental homogenates (placental homogenate): more stable than the mammalian GnRH analogs
receptor binding potency compared with chicken II GnRH isoform or Buserelin ([3]; Buserelin label, Example II): equipotent to Buserelin
receptor binding potency compared with mammalian GnRH ([3]; Buserelin label, Example II): three-fold more potent

CCNC(=O)[C@@H]1CCCN1C(=O)[C@H](CCCNC(=N)N)NC(=O)[C@H](CC(C)C)NC(=O)CNC(=O)[C@H](Cc1ccc(O)cc1)NC(=O)[C@H](CO)NC(=O)[C@H](Cc1c[nH]c2ccccc12)NC(=O)[C@H](Cc1c[nH]cn1)NC(=O)[C@@H]1CCC(=O)N1 [des-Gly^10-GnRH-ethylamide] ([pGlu]HWSYGLRP-NHEt)
degradation by / competition for C-ase-1, in words [2]: potent competitive inhibitors

CC(C)C[C@H](NC(=O)[C@H](CO)NC(=O)[C@H](Cc1ccc(O)cc1)NC(=O)[C@H](Cc1c[nH]cn1)NC(=O)[C@@H]1CCC(=O)N1)C(=O)N[C@@H](CCC(=O)O)C(=O)N[C@@H](Cc1c[nH]c2ccccc12)C(=O)N[C@@H](CCCCN)C(=O)N1CCC[C@H]1C(=O)NCC(N)=O [lamprey GnRH] ([pGlu]HYSLEWKPG-NH2)
relative potency of inhibition of C-ase-1 degradation of GnRH, compared to GnRH [1]: 1.5
potency as competitor for GnRH degradation by C-ase-1 compared with GnRH ([1]; Example VII): as or even more potent than GnRH

CC(C)C[C@H](NC(=O)[C@H](Cc1c[nH]c2ccccc12)NC(=O)CNC(=O)[C@H](Cc1ccc(O)cc1)NC(=O)[C@H](CO)NC(=O)[C@H](Cc1c[nH]c2ccccc12)NC(=O)[C@H](Cc1c[nH]cn1)NC(=O)[C@@H]1CCC(=O)N1)C(=O)N1CCC[C@H]1C(=O)NCC(N)=O [salmon GnRH] ([pGlu]HWSYGWLPG-NH2)
relative potency of inhibition of C-ase-1 degradation of GnRH, compared to GnRH [1]: 0.2

^9OH-Pro-GnRH
relative potency of inhibition of C-ase-1 degradation of GnRH, compared to GnRH [1]: 1.5
potency as competitor for GnRH degradation by C-ase-1 compared with GnRH ([1]; Example VII): as or even more potent than GnRH

chicken II GnRH-^10 aza-Gly-amide
degradation by / competition for C-ase-1, in words [2]: resistant to degradation
